# Assay results taken from PubChem BioAssay AID1259411 (Chemical Carcinogenesis Research Information System (CCRIS), 2018).
# Active and inactive are the calls of the source. How the calls were made is not given here.
# System: rodent carcinogenicity bioassays, tumor incidence
# Assay: CCRIS carcinogenicity studies
# Summary of the method: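 NCI-built, expert-reviewed records of carcinogenicity and related test outcomes (mutagenicity, tumor promotion/inhibition) compiled from published and report sources, historical span 1985-2011, not updated.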
structure (smiles),measurement,setting,value
c1ccc2c(c1)ccc1ncccc12,carcinogen call,"Species: RAT, Strain/Sex: SPRAGUE-DAWLEY/FEMALE, Route: SUBCUTANEOUS, Dose: 0, 200 UMOL/KG IN DMSO INTO SUPRASCAPULAR AREA ON DAY 1 OF LIFE FOLLOWED BY 0, 100 UMOL 1/WK AT WK 2-7 THEN O, 200 UMOL/, Dose: 0, 200 UMOL/KG IN DMSO INTO SUPRASCAPULAR AREA ON DAY 1 OF LIFE FOLLOWED BY 0, 100 UMOL 1/WK AT WK 2-7 THEN O, 200 UMOL/",inactive; negative
same,carcinogen call,"Species: RAT, Strain/Sex: SPRAGUE-DAWLEY/MALE, Route: SUBCUTANEOUS, Dose: 0, 200 UMOL/KG IN DMSO INTO SUPRASCAPULAR AREA ON DAY 1 OF LIFE FOLLOWED BY 0, 100 UMOL 1/WK AT WK 2-7 THEN O, 200 UMOL/, Dose: 0, 200 UMOL/KG IN DMSO INTO SUPRASCAPULAR AREA ON DAY 1 OF LIFE FOLLOWED BY 0, 100 UMOL 1/WK AT WK 2-7 THEN O, 200 UMOL/",inactive; negative
COC(=O)[C@H]1[C@H]2C[C@@H]3c4[nH]c5cc(OC)ccc5c4CCN3C[C@H]2C[C@@H](OC(=O)c2cc(OC)c(OC)c(OC)c2)[C@@H]1OC,carcinogen call,"Species: MOUSE, Strain/Sex: B6C3F1/FEMALE, Route: ORAL, Dose: 0, 5, 10 PPM IN DIET FOR 103 WK (STUDY DURATION: 105 WK), Dose: 0, 5, 10 PPM IN DIET FOR 103 WK (STUDY DURATION: 105 WK), Tumor Site: Type of Lesion: MAMMARY GLAND: MALIGNANT TUMOR",active; positive
same,carcinogen call,"Species: MOUSE, Strain/Sex: B6C3F1/MALE, Route: ORAL, Dose: 0, 5, 10 PPM IN DIET FOR 103 WK (STUDY DURATION: 105 WK), Dose: 0, 5, 10 PPM IN DIET FOR 103 WK (STUDY DURATION: 105 WK), Tumor Site: Type of Lesion: SEMINAL VESICLES: CARCINOMA",active; positive
same,carcinogen call,"Species: RAT, Strain/Sex: F344/FEMALE, Route: ORAL, Dose: 0, 5, 10 PPM IN DIET FOR 103 WK (STUDY DURATION: 105 WK), Dose: 0, 5, 10 PPM IN DIET FOR 103 WK (STUDY DURATION: 105 WK)",inactive; negative
same,carcinogen call,"Species: RAT, Strain/Sex: F344/MALE, Route: ORAL, Dose: 0, 5, 10 PPM IN DIET FOR 103 WK (STUDY DURATION: 105 WK), Dose: 0, 5, 10 PPM IN DIET FOR 103 WK (STUDY DURATION: 105 WK), Tumor Site: Type of Lesion: ADRENAL GLAND: MALIGNANT PHEOCHROMOCYTOMA OR PHEOCHROMOCYTOMA",active; positive
COc1cc(-c2ccc(N/N=C3/C(=O)c4c(N)cc(S(=O)(=O)O)cc4C=C3S(=O)(=O)O)c(OC)c2)ccc1N/N=C1/C(=O)c2c(N)cc(S(=O)(=O)O)cc2C=C1S(=O)(=O)O,carcinogen call,"Species: RAT, Strain/Sex: F344/FEMALE, Route: ORAL, Dose: 0, 630, 1250, 2500 PPM IN DRINKING WATER FOR 22 MO (STUDY DURATION: 22 MO), Dose: 0, 630, 1250, 2500 PPM IN DRINKING WATER FOR 22 MO (STUDY DURATION: 22 MO), Tumor Site: Type of Lesion: CLITORAL GLAND: ADENOMA, CARCINOMA, LIVER: NEOPLASTIC NODULE OR HEPATOCELLULAR CARCINOMA, ORAL CAVITY (TONGUE OR PHARYNX, Tumor Site: Type of Lesion: CLITORAL GLAND: ADENOMA, CARCINOMA, LIVER: NEOPLASTIC NODULE OR HEPATOCELLULAR CARCINOMA, ORAL CAVITY (TONGUE OR PHARYNX",active; positive
same,carcinogen call,"Species: RAT, Strain/Sex: F344/MALE, Route: ORAL, Dose: 0, 630, 1250, 2500 PPM IN DRINKING WATER FOR 22 MO (STUDY DURATION: 22 MO), Dose: 0, 630, 1250, 2500 PPM IN DRINKING WATER FOR 22 MO (STUDY DURATION: 22 MO), Tumor Site: Type of Lesion: LARGE INTESTINE: ADENOMATOUS POLYP OR ADENOCARCINOMA, LIVER: NEOPLASTIC NODULE OR HEPATOCELLULAR CARCINOMA, ORAL CAVITY, Tumor Site: Type of Lesion: LARGE INTESTINE: ADENOMATOUS POLYP OR ADENOCARCINOMA, LIVER: NEOPLASTIC NODULE OR HEPATOCELLULAR CARCINOMA, ORAL CAVITY",active; positive
N[C@@H](Cc1ccc(N(CCCl)CCCl)cc1)C(=O)O,carcinogen call,"Species: HUMAN, Route: ORAL, Tumor Site: Type of Lesion: HEMATOPOIETIC SYSTEM (LEUKEMIA), LYMPHATIC SYSTEM: LYMPHOMA",active; positive
same,carcinogen call,"Species: MOUSE, Strain/Sex: STRAIN-A/MALE,FEMALE, Route: INTRAPERITONEAL, Dose: 0.27, 1.07, 4.27, 17.1 MG/KG IN 12 DOSES OVER 4 WK, Dose: 0.27, 1.07, 4.27, 17.1 MG/KG IN 12 DOSES OVER 4 WK, Tumor Site: Type of Lesion: LUNG: ADENOMA",active; positive
same,carcinogen call,"Species: MOUSE, Strain/Sex: SWISS/FEMALE, Route: INTRAPERITONEAL, Dose: 0.75, 1.5 MG/KG 3/WK FOR 6 MO, Tumor Site: Type of Lesion: LUNG: ADENOMA",active; positive
same,carcinogen call,"Species: MOUSE, Strain/Sex: SWISS/MALE, Route: INTRAPERITONEAL, Dose: 0.75, 1.5 MG/KG 3/WK FOR 6 MO, Tumor Site: Type of Lesion: LUNG: ADENOMA, LYMPHATIC SYSTEM: LYMPHOSARCOMA",active; positive
same,carcinogen call,"Species: RAT, Strain/Sex: STRAIN-CD/MALE,FEMALE, Route: INTRAPERITONEAL, Dose: 0.9, 1.8 MG/KG 3/WK FOR 6 MO, Tumor Site: Type of Lesion: PERITONEAL CAVITY: SARCOMA",active; positive
CC(C)[C@@H]1CC[C@@H](C)C[C@H]1O,carcinogen call,"Species: MOUSE, Strain/Sex: B6C3F1/FEMALE, Route: ORAL, Dose: 0, 2000, 4000 PPM IN DIET, Dose: 0, 2000, 4000 PPM IN DIET",inactive; negative
same,carcinogen call,"Species: MOUSE, Strain/Sex: B6C3F1/MALE, Route: ORAL, Dose: 0, 2000, 4000 PPM IN DIET, Dose: 0, 2000, 4000 PPM IN DIET",inactive; negative
same,carcinogen call,"Species: RAT, Strain/Sex: F344/FEMALE, Route: ORAL, Dose: 0, 3750, 7500 PPM IN DIET, Dose: 0, 3750, 7500 PPM IN DIET",inactive; negative
same,carcinogen call,"Species: RAT, Strain/Sex: F344/MALE, Route: ORAL, Dose: 0, 3750, 7500 PPM IN DIET, Dose: 0, 3750, 7500 PPM IN DIET",inactive; negative
O=[N+]([O-])c1ccc2c(c1)Cc1cc([N+](=O)[O-])ccc1-2,carcinogen call,"Species: Rat, Strain/Sex: Sprague-Dawley/Female (16/group), Route: Intraperitoneal, Dose: 10 umol/kg 3 times a wk for 4 wk (avg total dose 16.0 umol/rat), animals retained for up to 90 wk after last dosing (Tes, Tumor Site: Type of Lesion: Mammary Gland: % of rats with tumors (malignant 44, benign 38 vs 6 malignant, 53 benign in vehicle controls)",active; positive for malignant tumors only (p=0.02). dna adducts observed in mammary gla
same,carcinogen call,"Species: Rat, Strain/Sex: Sprague-Dawley/Female (17/group), Route: Oral, Dose: 10 umol/kg 3 times a wk for 4 wk (avg total dose 18.0 umol/rat), animals retained for up to 90 wk after last dosing (Tes, Tumor Site: Type of Lesion: Mammary Gland: % of rats with tumors (malignant 29, benign 53 vs 12 malignant, 53 benign in vehicle controls)",inactive; negative. dna adducts observed in mammary gland dna collected 24 hr after last d
C[C@H]1C[C@]2(C)[C@@H](O)CC[C@H]2[C@@H]2CCc3cc(O)ccc3[C@H]21,carcinogen call,"Species: HAMSTER, Strain/Sex: SYRIAN/MALE, Route: SUBCUTANEOUS IMPLANT, Dose: 0, 20 MG IN PELLETS IMPLANTED EVERY 2.5 MO FOR 9 MO (STUDY DURATION: 9 MO)",inactive; negative
CC1=NN(c2ccccc2)C(=O)C1,carcinogen call,"Species: MOUSE, Strain/Sex: B6C3F1/FEMALE, Route: ORAL, Dose: 0, 7500, 15000 PPM IN DIET, Dose: 0, 7500, 15000 PPM IN DIET",inactive; negative
same,carcinogen call,"Species: MOUSE, Strain/Sex: B6C3F1/MALE, Route: ORAL, Dose: 0, 7500, 15000 PPM IN DIET, Dose: 0, 7500, 15000 PPM IN DIET",inactive; negative
same,carcinogen call,"Species: RAT, Strain/Sex: F344/FEMALE, Route: ORAL, Dose: 0, 2500, 5000 PPM IN DIET, Dose: 0, 2500, 5000 PPM IN DIET",inactive; negative
same,carcinogen call,"Species: RAT, Strain/Sex: F344/MALE, Route: ORAL, Dose: 0, 2500, 5000 PPM IN DIET, Dose: 0, 2500, 5000 PPM IN DIET",inactive; negative
NC(=O)N(CCF)N=O,carcinogen call,"Species: RAT, Strain/Sex: F344/MALE, Route: GAVAGE, Dose: 0, 1.75 MG/ML (TOTAL DOSE 0; 0.2 MMOL) IN 2 ML ETHYL ACETATE AND CORN OIL (1:2) 2/WK FOR 40 WK (STUDY DURATION: LIFETIME, Dose: 0, 1.75 MG/ML (TOTAL DOSE 0; 0.2 MMOL) IN 2 ML ETHYL ACETATE AND CORN OIL (1:2) 2/WK FOR 40 WK (STUDY DURATION: LIFETIME",inactive; negative
same,carcinogen call,"Species: RAT, Strain/Sex: F344/MALE, Route: GAVAGE, Dose: 0, 1.75 MG/ML IN 0.2 ML ETHYL ACETATE AND CORN OIL 2/WK FOR 40 WK (STUDY DURATION: LIFESPAN), Tumor Site: Type of Lesion: FORESTOMACH: TUMOR",active; positive
Cc1cc2c(c3ccc4ccccc4c13)CCC2=O,carcinogen call,"Species: MOUSE, Strain/Sex: TO/MALE, FEMALE, Route: DERMAL, Dose: 0, 50 UG (10 µL OF A 0.5% W/V TOLUENE SOLUTION) 2/WK FOR 70 WK (STUDY DURATION: 70 WK), Tumor Site: Type of Lesion: SKIN: CARCINOMA",active; positive
